We go through 44 molecules from patent publication US20230234917A1, “ASPARAGINE DERIVATIVES AND METHODS OF USING SAME” (priority 2020, published 2023).

In experiment [1] the target is T1, ClbP (Escherichia coli, UniProt Q0P7K6). Briefly: ClbP cell lysate activity (inhibition) assay, fluorogenic substrate. The conditions noted are these: ClbP Lysate Inhibition Assay: IC50, E. coli ClbP+ lysozyme-EDTA lysates, 5 μM fluorogenic substrate, inhibitor 0-300 μM, 37° C., singlicate. Format: biochemical. A digest of the protocol:
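E. coli ClbP+ overnight culture lysed with lysozyme-EDTA (30 min, 37 °C); lysate (fivefold concentrated vs culture) mixed with inhibitor (0–300 μM, 4% DMSO) and 5 μM fluorogenic substrate. Fluorescence (ex 360/em 460 nm) read at 37 °C; 0–20 min rates normalized to no-inhibitor, three-parameter IC50 fit, singlicate.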

Experiment [2] concerns the target T1, ClbP. Nature of the experiment: ClbP whole cell activity (inhibition) assay, fluorogenic substrate. The class given is cell-based, E. coli. A digest of the protocol:
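E. coli ClbP+ overnight culture washed and concentrated fivefold in PBS, mixed with inhibitor (0–300 μM, 4% DMSO) and 5 μM fluorogenic substrate at 37 °C. Fluorescence (ex 360/em 460 nm) read every 2 min for 46 min. Rates from 10–30 min normalized to no inhibitor and fit to a three-parameter IC50.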

Experiment [3] concerns the target Full-length WT ClbP (Escherichia coli, UniProt Q0P7K6). Nature of the experiment: ClbP molecular (purified protein) enzymatic inhibition assay, fluorogenic substrate. The class given is biochemical, E. coli.

`CCCCCCCCCC(=O)N[C@@H]1CC(=O)NC1(O)C(=O)NCc1ccccc1` (stereo partly drawn) [Compound […]]: the IC50 was 100 to 300 µM in experiment [1], 100 to 300 µM in experiment [2] and less than 100 µM in experiment [3].

For the molecule `CCCCCCCC(=O)N[C@H](CC(N)=O)C(=O)NCCc1ccsc1` [Compound CCVI], the IC50 in experiment [1], in experiment [2] and in experiment [3] was less than 100 µM each time.

As to `CCCCCCCC(=O)N[C@H](CC(N)=O)C(=O)NCCc1ccccc1` [Compound III], the IC50 in experiment [1], in experiment [2] and in experiment [3] was less than 100 µM in each case.

As for `CNCCCCCC(=O)N[C@H](CC(N)=O)C(=O)NCCc1ccc(O)cc1` [Compound CCC], the IC50 in experiment [1], in experiment [2] and in experiment [3] was greater than 300 µM throughout.

Turning to `CCCCCCCC(=O)N[C@H](CC(=O)NC)C(=O)NCCc1ccccc1` [Compound CCXVI], the results for the IC50 in experiment [1], in experiment [2] and in experiment [3] were 100 to 300 µM, less than 100 µM and 100 to 300 µM, respectively.

On to `CCCCCCCC(=O)N[C@H](CC(N)=O)C(=O)NCCOc1ccccc1` [Compound CCLIV], for which the IC50 in experiment [1], in experiment [2] and in experiment [3] was less than 100 µM in each case.

For the molecule `NC(=O)C[C@@H](NC(=O)CCCC1CCCCCC1)C(=O)NCCc1ccccc1` [Compound CCXXXIX], the IC50 in experiment [1], in experiment [2] and in experiment [3] was less than 100 µM in each case.

Consider `CCCCCCCC(=O)N[C@H](CC(=O)NOC)C(=O)NCCc1ccc(O)cc1` [Compound CCLXXXV], for which the IC50 in experiment [1] was 100 to 300 µM; in experiment [2], 100 to 300 µM; in experiment [3], less than 100 µM.

Turning to `CCCCCCCCCC(=O)N[C@H](CC(N)=O)C(=O)NCCc1ccccc1` [Compound CCLXVI], the IC50 in experiment [1], in experiment [2] and in experiment [3] was less than 100 µM throughout.

With `NC(=O)C[C@@H](NC(=O)CCCc1ccc(O)cc1)C(=O)NCCc1ccc(O)cc1` [Compound CCLIII], the IC50 in experiment [1], in experiment [2] and in experiment [3] was less than 100 µM throughout.

In the case of `CCCCCCCC(=O)N[C@H](CC(N)=O)C(=O)N[C@@H](C)Cc1ccccc1` [Compound CCIV], the IC50 was greater than 300 µM in experiment [1], greater than 300 µM in experiment [2] and 100 to 300 µM in experiment [3].

With `NC(=O)C[C@@H](NC(=O)/C=C/CC1CCCCCC1)C(=O)NCCc1ccc(O)cc1` [Compound CCXL], the IC50 in experiment [1], in experiment [2] and in experiment [3] was less than 100 µM throughout.

For `CCCCCCCC(=O)N[C@@H](/C=C/C(=O)OCC)CC(N)=O` [Compound CCLXXIII], the IC50 is greater than 300 µM in experiment [1], greater than 300 µM in experiment [2] and 100 to 300 µM in experiment [3].

Take `CCCCCCCC(=O)N[C@H](CC(N)=O)C(=O)NCCc1cccnc1` [Compound CCXXX]: the half-maximal inhibitory concentration (IC50) in experiment [1], in experiment [2] and in experiment [3] was less than 100 µM in each case.

Take `NC(=O)C[C@@H](NC(=O)CCC1CCCCC1)C(=O)NCCc1ccc(O)cc1` [Compound CCXLII]: the half-maximal inhibitory concentration (IC50) in experiment [1], in experiment [2] and in experiment [3] was less than 100 µM throughout.

`CCCCCC(=O)N[C@H](CC(N)=O)C(=O)NCCc1ccc(C(F)(F)F)cc1` [Compound CCLXXV]: the IC50 was greater than 300 µM in experiment [1], greater than 300 µM in experiment [2] and less than 100 µM in experiment [3].

Take `O=C(C[C@@H](NC(=O)CCC1CCCCC1)C(=O)NCCc1ccc(O)c(O)c1)NO` [Compound CCLXXXIV]: the 50% inhibitory concentration (IC50) in experiment [1] is 100 to 300 µM; in experiment [2] it was 100 to 300 µM; in experiment [3], less than 100 µM.

In the case of `NC(=O)C[C@@H](NC(=O)CCC1CCCCC1)C(=O)NCCc1ccccc1` [Compound CCXLIII], the IC50 in experiment [1], in experiment [2] and in experiment [3] was less than 100 µM in each case.

With `O=C(/C=C/CC1CCCC1)N[C@H](CC(=O)NO)C(=O)NCCc1ccc(O)cc1` [Compound CCXCVIII], the IC50 in experiment [1], in experiment [2] and in experiment [3] was less than 100 µM throughout.

Consider `CCCCCCCC(=O)N[C@H](CC(N)=O)C(=O)NCCc1ccc(O)cc1O` [Compound CCXXV], for which the IC50 in experiment [1], in experiment [2] and in experiment [3] was less than 100 µM each time.

In the case of `NC(=O)C[C@@H](NC(=O)CCCc1ccncc1)C(=O)NCCc1ccc(O)cc1` [Compound CCLI], the IC50 was 100 to 300 µM in experiment [1], less than 100 µM in experiment [2] and less than 100 µM in experiment [3].

Consider `CCCCCCCC(=O)N[C@H](CC(N)=O)C(=O)C(=O)NCc1ccccc1` [Compound CCLXXXIII], for which the IC50 in experiment [1], in experiment [2] and in experiment [3] was less than 100 µM each time.

Take `NC(=O)C[C@@H](NC(=O)CCCC1CCCCC1)C(=O)NCCc1ccccc1` [Compound CCLXX]: the IC50 in experiment [1], in experiment [2] and in experiment [3] was less than 100 µM throughout.

Take `NC(=O)C[C@@H](NC(=O)CCC1CCCC1)C(=O)NCCc1ccccc1` [Compound CCL]: the IC50 in experiment [1], in experiment [2] and in experiment [3] was less than 100 µM each time.

In the case of `O=C(C[C@@H](NC(=O)CCCC1CCCCC1)C(=O)NCCc1ccc(O)cc1)NO` [Compound CCXCVI], the IC50 in experiment [1], in experiment [2] and in experiment [3] was less than 100 µM throughout.

For the molecule `NC(=O)C[C@@H](NC(=O)CCCC1CCCCC1)C(=O)NCCc1ccccn1` [Compound CCCIII], the IC50 in experiment [1], in experiment [2] and in experiment [3] was less than 100 µM each time.

Consider `CCCCCC(=O)N[C@H](CC(N)=O)C(=O)NCCc1ccccc1` [Compound CCLXVII], for which the IC50 in experiment [1] is 100 to 300 µM; in experiment [2], less than 100 µM; in experiment [3], less than 100 µM.

In the case of `CCCCCCCC(=O)N[C@H](CC(N)=O)C(=O)NCCc1cc(F)c(O)c(F)c1` [Compound CCLVI], the IC50 in experiment [1], in experiment [2] and in experiment [3] was less than 100 µM in each case.

As for `CN(CCCCCC(=O)N[C@H](CC(N)=O)C(=O)NCCc1ccc(O)cc1)Cc1ccccc1` [Compound CCXCI], the IC50 in experiment [1], in experiment [2] and in experiment [3] was less than 100 µM each time.

For the molecule `CCCCCCCC(=O)N[C@H](CC(N)=O)C(=O)NCCc1cccc(O)c1` [Compound CCXXIII], the IC50 in experiment [1], in experiment [2] and in experiment [3] was less than 100 µM in each case.

`CCCCCCCC(=O)N[C@H](CC(N)=O)c1ncnn1Cc1ccccc1` [Compound CCCXII]: the IC50 in experiment [1], in experiment [2] and in experiment [3] was greater than 300 µM in each case.

In the case of `CCCCCCCC(=O)N[C@](C)(CC(N)=O)C(=O)NCCc1ccccc1` [Compound LXX], the figures for the IC50 in experiment [1], in experiment [2] and in experiment [3] were greater than 300 µM, greater than 300 µM and 100 to 300 µM, respectively.

Take `CCCCCCCC(=O)N[C@H](CC(N)=O)CN(C)CCc1ccccc1` [Compound XVI]: the values for the IC50 in experiment [1], in experiment [2] and in experiment [3] were less than 100 µM, greater than 300 µM and less than 100 µM, respectively.

On to `NC(=O)C[C@@H](NC(=O)CCCC1CCCCC1)C(=O)NCCc1ccc(O)cc1` [Compound CCXXII], for which the IC50 in experiment [1], in experiment [2] and in experiment [3] was less than 100 µM in each case.

Regarding `CCCCCCCC(=O)N[C@H](CC(N)=O)[C@H](O)CCCc1ccccc1` [Compound CXCII], the IC50 is less than 100 µM in experiment [1], greater than 300 µM in experiment [2] and 100 to 300 µM in experiment [3].

Turning to `CCCCCCCC(=O)N[C@H](CC(N)=O)C(=O)NCCc1ccc(=O)[nH]c1` [Compound CCXXXV], the IC50 in experiment [1] was greater than 300 µM; in experiment [2] it was less than 100 µM; in experiment [3], less than 100 µM.

For the molecule `CCCCCCCC(=O)N[C@@H]1CC(=O)NC1(O)C(=O)NCCCC` (stereo partly drawn) [Compound CCXC], the 50% inhibitory concentration (IC50) in experiment [1], in experiment [2] and in experiment [3] was less than 100 µM in each case.

`O=C(/C=C/CC1CCCCC1)N[C@H](CC(=O)NO)C(=O)NCCc1ccc(O)cc1` [Compound CCXCVII]: the IC50 in experiment [1], in experiment [2] and in experiment [3] was less than 100 µM throughout.

Turning to `NC(=O)C[C@@H](NC(=O)CCCC1CCCC1)C(=O)NCCc1ccc(O)cc1` [Compound CCLXI], the IC50 in experiment [1], in experiment [2] and in experiment [3] was less than 100 µM throughout.

Regarding `CCCCCCCNC(=O)[C@H](CC(N)=O)NC(=O)OCc1ccccc1` [Compound CCIX], the IC50 in experiment [1] is greater than 300 µM; in experiment [2] it was greater than 300 µM; in experiment [3], 100 to 300 µM.

Regarding `CCCCCCCC(=O)N[C@H](CC(N)=O)C(=O)NCCc1ccc(C(=O)OC)cc1` [Compound CXCVII], the IC50 in experiment [1], in experiment [2] and in experiment [3] was less than 100 µM in each case.

`CCCCCCCC(=O)N[C@H](CC(N)=O)C(=O)NCCC1CCN(C)CC1` [Compound CCXIX]: the IC50 was 100 to 300 µM in experiment [1], less than 100 µM in experiment [2] and less than 100 µM in experiment [3].

For the molecule `CCCCCCC(F)(F)C(=O)N[C@H](CC(N)=O)C(=O)NCCc1ccc(O)cc1` [Compound CCXXXVI], the results for the IC50 in experiment [1], in experiment [2] and in experiment [3] were less than 100 µM, greater than 300 µM and less than 100 µM, respectively.

As to `CCCCCCCC(N[C@H](CC(N)=O)C(=O)NCCc1ccccc1)C(F)(F)F` (stereo partly drawn) [Compound CCXIV], the IC50 in experiment [1] was greater than 300 µM; in experiment [2] it was greater than 300 µM; in experiment [3], less than 100 µM.
